Our source for the IC50 values is ChEMBL document CHEMBL3124930, “Synthesis of novel 5-(3-alkylquinolin-2-yl)-3-aryl isoxazole derivatives and their cytotoxic activity” (Bioorg Med Chem Lett, 2014).

One may read the IC50 as the concentration at which inhibition is half-maximal.

What all share (assay type): functional, cell-based
For test [1], the system named is COLO 205. Briefly: Cytotoxicity against human COLO205 cells assessed as growth inhibition after 24 hrs by MTT assay. The conditions noted are these: COLO 205, 24 h. A general note: Tetrazolium assays rely on reduction of a dye to a coloured formazan, in cell work by metabolically active cells.
Test [2] concerns PC-3. Briefly: Cytotoxicity against human PC3 cells assessed as growth inhibition after 24 hrs by MTT assay. The note with it: PC-3, 24 h.
Test [3] relates to MDA-MB-231. Briefly: Cytotoxicity against human MDA-MB-231 cells assessed as growth inhibition after 24 hrs by MTT assay. The note with it: MDA-MB-231, 24 h.
Test [4] deals with A549. Put plainly: Cytotoxicity against human A549 cells assessed as growth inhibition after 24 hrs by MTT assay. The note with it: A549, 24 h.

On to `COc1cccc2c1C(=O)c1c(O)c3c(c(O)c1C2=O)C[C@@](O)(C(=O)CO)C[C@@H]3O[C@H]1C[C@H](N)[C@H](O)[C@H](C)O1` [DOXORUBICIN], for which the concentration for half-maximal inhibition (IC50) turned out to be 0.7 µM in test [1], 0.6 µM in test [2] and 0.8 µM in test [3].

With `CCCCc1cc2ccccc2nc1-c1cc(-c2ccc(C)cc2)no1`, the 50% inhibitory concentration (IC50) in test [1], in test [4], in test [2] and in test [3] was > 100 µM throughout.

Regarding `Cc1ccc(-c2cc(/C=N/c3ccccc3)on2)cc1`, the half-maximal inhibitory concentration (IC50) in test [1] is 28.9 µM; in test [4] it was 32 µM; in test [2], 31.6 µM; in test [3], 29.4 µM.

In the case of `CCc1cc2ccccc2nc1-c1cc(-c2ccc(F)cc2)no1`, the half-maximal inhibitory concentration (IC50) in test [1], in test [4], in test [2] and in test [3] was > 100 µM in each case.

With `FC(F)(F)c1ccc(-c2cc(/C=N/c3ccccc3)on2)cc1`, the IC50 in test [1] stood at 41.3 µM; in test [4], 38.9 µM; in test [2], 35.7 µM; in test [3], 37.4 µM.

Turning to `CCCCc1cc2ccccc2nc1-c1cc(-c2ccc(F)cc2)no1`, the half-maximal inhibitory concentration (IC50) in test [1] turned out to be 25.3 µM; in test [4], 27.5 µM; in test [2] it was 26.3 µM; in test [3] it was 24.2 µM.

On to `CCCCCc1cc2ccccc2nc1-c1cc(-c2ccc(C(F)(F)F)cc2)no1`, for which the IC50 amounted to 24.5 µM in test [1], 28.3 µM in test [4], 30.2 µM in test [2] and 22.1 µM in test [3].

In the case of `CCc1cc2ccccc2nc1-c1cc(-c2ccc(C)cc2)no1`, the IC50 in test [1], in test [4], in test [2] and in test [3] was > 100 µM throughout.

With `CCCc1cc2ccccc2nc1-c1cc(-c2ccc(C(F)(F)F)cc2)no1`, the IC50 in test [1] stood at 42.2 µM; in test [4], 43.9 µM; in test [2], 33.8 µM; in test [3], 36.5 µM.

As to `CCCc1cc2ccccc2nc1-c1cc(-c2ccc(F)cc2)no1`, the IC50 in test [1] was 50.3 µM; in test [4] it was 51.3 µM; in test [2] it was 42.2 µM; in test [3] it was 48.4 µM.

As for `CCCCc1cc2ccccc2nc1-c1cc(-c2ccccc2)no1`, the 50% inhibitory concentration (IC50) in test [1], in test [4], in test [2] and in test [3] was > 100 µM in each case.

Take `CCCCc1cc2ccccc2nc1-c1cc(-c2ccc(C(F)(F)F)cc2)no1`: the IC50 in test [1] was determined as 11.9 µM; in test [4], 9.4 µM; in test [2], 10.8 µM; in test [3] it was 10.4 µM.

With `CCCCCc1cc2ccccc2nc1-c1cc(-c2ccc(C)cc2)no1`, the IC50 in test [1], in test [4], in test [2] and in test [3] was > 100 µM throughout.

As to `CCCCCc1cc2ccccc2nc1-c1cc(-c2ccccc2)no1`, the IC50 was > 100 µM in test [1], 92.3 µM in test [4], > 100 µM in test [2] and > 100 µM in test [3].

As to `C(=N\c1ccccc1)/c1cc(-c2ccccc2)no1`, the half-inhibitory concentration (IC50) in test [1] was 89.1 µM; in test [4], 48.1 µM; in test [2], > 100 µM; in test [3], > 100 µM.

As to `CCCc1cc2ccccc2nc1-c1cc(-c2ccccc2)no1`, the concentration for half-maximal inhibition (IC50) stood at 48.9 µM in test [1], 52.5 µM in test [4], 51.3 µM in test [2] and 47.2 µM in test [3].

`Fc1ccc(-c2cc(/C=N/c3ccccc3)on2)cc1`: the 50% inhibitory concentration (IC50) turned out to be 33.1 µM in test [1], 34.5 µM in test [4], 36.5 µM in test [2] and 41.2 µM in test [3].

`CCc1cc2ccccc2nc1-c1cc(-c2ccc(C(F)(F)F)cc2)no1`: the 50% inhibitory concentration (IC50) in test [1], in test [4], in test [2] and in test [3] was > 100 µM each time.

As to `CCCc1cc2ccccc2nc1-c1cc(-c2ccc(C)cc2)no1`, the concentration for half-maximal inhibition (IC50) in test [1], in test [4], in test [2] and in test [3] was > 100 µM throughout.

For the molecule `CCc1cc2ccccc2nc1-c1cc(-c2ccccc2)no1`, the 50% inhibitory concentration (IC50) in test [1], in test [4], in test [2] and in test [3] was > 100 µM throughout.
